From US11708357B2, “Crystal form of pyrrolidinyl urea derivative and application thereof” (ZHANGZHOU PIEN TZE HUANG PHARMACEUTICAL CO., LTD., priority 2020, dated 2023) come the findings set out here.

Molecules are shown by their SMILES.

This series can be described thus: In vivo pharmacokinetic study in mice after single administration. Details: species or system CD-1 mice. The conditions noted are these: male, CD-1, mouse, plasma. As to the method: Male CD-1 mice were used as test animals, the concentration of the compound in blood was determined after single administration to evaluate the pharmacokinetic behavior.
CD-1 mice (male, 20-40 g, 6-9 weeks, Shanghai Sippr-Bk Laboratory Animal Co., Ltd.)
The pharmacokinetic characteristics of the test compound in rodents after intravenous injection and oral administration were tested by standard protocols, in the experiment, the test compound was prepared into a clear solution or homogeneous suspension, and administered to the mice by single intravenous injection and oral administration. In the intravenous injection group, the menstruum was a certain proportion of ethanol, Cremophor EL and physiological saline solution, the mixture was vortexed to prepare 1 mg/mL clear solution, then filtered with microporous membrane for later use; in the oral administration group, the menstruum was a certain proportion of methyl cellulose solution or certain proportion of methyl cellulose and Tween 80 aqueous solution, the test compound was mixed with the menstruum, and the mixture was vortexed to prepare 10 mg/mL clear or homogeneous suspension for later use. After 2 mg/kg intravenous administration or 100 mg/kg oral administration to the mice, a certain amount of whole blood samples were collected, centrifuged at 3200 g for 10 minutes, the supernatant was separated to obtain the plasma samples, and the samples were diluted multiple times with blank plasma according to actual needs. The plasma sample was added to acetonitrile solution containing the internal standard with a volume 20 times that of the plasma sample to precipitate proteins, and then centrifuged; the supernatant was separated, and water with a volume twice that of the supernatant was added to the supernatant, which was then centrifuged again; the supernatant was collected for analysis; LC-MS/MS analysis method was used to quantitatively analyze the blood drug concentration, and Phoenix WinNonlin software (Pharsight, USA) was used to calculate the pharmacokinetic parameters, such as peak concentration, time to peak concentration, clearance rate, half-life, area under the concentration-time curve, bioavailability, etc.
Among them, C0 is the initial concentration, T1/2 is the elimination half-life, Vdss is the steady-state apparent volume of distribution, Cl is the total clearance rate, AUC0-inf is the area under the plasma drug concentration-time curve from time 0 to infinity, Cmax is the peak concentration, Tmax is the time to peak concentration.

Where [1] appears, read: 2 mg/kg, 2 mpk intravenous injection.
Where [2] appears, read: 100 mg/kg, 100 mpk oral administration.

Under setting [1], `COCCN1C[C@@H](n2ccc(F)c2)[C@H](NC(=O)Nc2c(C)c(-c3cnc(C4(F)COC4)nc3)nn2-c2ccccc2)C1` [Compound of formula (I)] showed an AUC(0-inf) of 1.44 µM·h, a C0 of 2.72 µM, a clearance of 41.7 mL/min/kg and a half-life of 34.2 min. Under “2 mg/kg, 2 mpk intravenous injection, read-out: Vdss”, the Vd was found to be 1.54 L/kg. Also, under setting [2], the AUC(0-inf) is 37.6 µM·h, the Cmax was 25.6 µM, the Tmax was 22.8 min and the bioavailability is 52.2%. The molecule further gave a half-life under setting [2] of 55.2 min.

For orientation: AUC(0-inf) means the area under the concentration-time curve extrapolated to infinity. Higher therefore signals high exposure. As usually defined, the clearance is the volume of plasma or blood freed of the substance per unit of time. Broadly, the half-life is how long it takes for the measured level to halve. One may read the Cmax as the maximum level reached in the sampled fluid or tissue. The term Tmax denotes the time at which the peak concentration occurs. Broadly, the bioavailability is dose-corrected exposure relative to a reference, in per cent. Lower therefore signals little systemic uptake.
